Literature values, collected in PubChem BioAssay AID1259409 (Chemical Carcinogenesis Research Information System (CCRIS), 2018).

Test system: rodent chemically induced tumor inhibition, incidence and multiplicity
Experiment: CCRIS tumor inhibitor studies
Details: Route [Inhibitor]: ORAL, Species: RAT

## CCCCCCOc1cc(C)c(O)c(C)c1C
Carcinogen: 1,2-DIMETHYLBHYDRAZINE [540-73-8], Dose [Inhibitor]: 0.5% IN DIET FOR 32 WK BEGINNING 1 WK POST LAST CARCINOGEN DOSE (STUDY DURATION: 36 WK), Strain/Sex: F344/MALE, Target Tissue: Type of Lesion: COLON: ADENOMA OR CARCINOMA, Dose [Carcinogen]: 40 MG/KG BW 1X/WK FOR 4 WK (STUDY DURATION: 36 WK), Promoter: 2-AMINO-1-METHYL-6-PHENYLIMIDAZO[4,5-B]PYRIDINE [105650-23-5]
  tumour outcome (control, treated, inhibition, significance): 20/21 (95%), 19/19 (100%), -5%, not significant
Carcinogen: 2-AMINO-1-METHYL-6-PHENYL-1H-IMIDAZO[4,5-B]PYRID INE, 105650-23-5, Dose [Inhibitor]: 0, 0.5% IN THE DIET FOR 52 WK (STUDY DURATION: 52 WK), Strain/Sex: F344/FEMALE, Target Tissue: Type of Lesion: MAMMARY GLAND: ADENOCARCINOMA FIBROADENOMA, Dose [Carcinogen]: 0.02% IN THE DIET FOR 52 WK, Promoter: NONE USED
  tumour outcome (control, treated, inhibition, significance): 2/20 (10%), 0/21 (0%), 100%, not significant
Carcinogen: 2-AMINO-1-METHYL-6-PHENYL-1H-IMIDAZO[4,5-B]PYRID INE, 105650-23-5, Dose [Inhibitor]: 0, 0.5% IN THE DIET FOR 52 WK (STUDY DURATION: 52 WK), Strain/Sex: F344/FEMALE, Target Tissue: Type of Lesion: MAMMARY GLAND: ADENOCARCINOMA, Dose [Carcinogen]: 0.02% IN THE DIET FOR 52 WK, Promoter: NONE USED
  tumour outcome (control, treated, inhibition, significance): 8/20 (40%), 1/21 (5%), 88%, p< 0.01
Carcinogen: 2-AMINO-1-METHYL-6-PHENYLIMIDAZO[4,5-B]PYRIDINE, 105650-23-5, Dose [Inhibitor]: 0, 0.5% IN DIET FOR 52 WK CONCURRENTLY WITH CARCINOGEN TREATMENT (STUDY DURATION: 52 WK), Strain/Sex: F344/FEMALE, Target Tissue: Type of Lesion: LARGE INTESTINE: ADENOMA OR CARCINOMA, Dose [Carcinogen]: 0.02% IN DIET FOR 52 WK, Promoter: NONE USED
  tumour outcome (control, treated, inhibition, significance): 2/18 (11%), 0/21 (0%), 100%, not calculated
Carcinogen: 2-AMINO-1-METHYL-6-PHENYLIMIDAZO[4,5-B]PYRIDINE, 105650-23-5, Dose [Inhibitor]: 0, 0.5% IN DIET FOR 52 WK CONCURRENTLY WITH CARCINOGEN TREATMENT (STUDY DURATION: 52 WK), Strain/Sex: F344/FEMALE, Target Tissue: Type of Lesion: MAMMARY GLAND: ADENOCARCINOMA, Dose [Carcinogen]: 0.02% IN DIET FOR 52 WK, Promoter: NONE USED
  tumour outcome (control, treated, inhibition, significance): 8/20 (40%), 1/21 (5%), 88%, p<0.01
Carcinogen: DIETHYLNITROSAMINE, 55-18-5, N-METHYL-N-NITROSOUREA, 684-63-5, N-BUTYL-N-(4-HYDROXYBUTYL)NITROSAMINE, 3817-11-6, DIMETHY, Carcinogen: DIETHYLNITROSAMINE, 55-18-5, N-METHYL-N-NITROSOUREA, 684-63-5, N-BUTYL-N-(4-HYDROXYBUTYL)NITROSAMINE, 3817-11-6, DIMETHY, Dose [Inhibitor]: 0, 1% IN THE DIET FOR 30 D BEGINNING 1 D PRIOR TO CARCINOGEN TREATMENT (STUDY DURATION: 28 WK), Strain/Sex: F344/MALE, Target Tissue: Type of Lesion: SMALL INTESTINE: CARCINOMA, Dose [Carcinogen]: 100 MG/KG BW DEN ONCE FOLLOWED BY 20 MG/KG BW MNU 4 TIMES AND 0.05% BBN IN DRINKING WATER DURING FIRST 2 WK THEN 40 MG/K, Promoter: NONE USED
  tumour outcome (control, treated, inhibition, significance): 7%, 14%, -100%, not significant
Carcinogen: DIETHYLNITROSAMINE, 55-18-5, N-METHYL-N-NITROSOUREA, 684-93-5, N-BUTYL-N-(4-HYDROXYBUTYL)NITROSAMINE, 3817-11-6, DIMETHY, Carcinogen: DIETHYLNITROSAMINE, 55-18-5, N-METHYL-N-NITROSOUREA, 684-93-5, N-BUTYL-N-(4-HYDROXYBUTYL)NITROSAMINE, 3817-11-6, DIMETHY, Dose [Inhibitor]: 0, 1% IN THE DIET FOR 24 MO BEGINNING 1 DAY POST CARCINOGEN TREATMENT (STUDY DURATION: 28 WK), Strain/Sex: F344/MALE, Target Tissue: Type of Lesion: LARGE INTESTINE: CARCINOMA, Dose [Carcinogen]: 100 MG/KG BW DEN ONCE FOLLOWED BY 20 MG/KG BW MNU 4 TIMES AND 0.05% BBN IN DRINKING WATER DURING FIRST 2 WK THEN 40 MG/K, Promoter: NONE USED
  tumour outcome (control, treated, inhibition, significance): 7%, 7%, 0%, not significant
Carcinogen: DIETHYLNITROSAMINE, 55-18-5, N-METHYL-N-NITROSOUREA, 684-93-5, N-BUTYL-N-(4-HYDROXYBUTYL)NITROSAMINE, 3817-11-6, DIMETHY, Carcinogen: DIETHYLNITROSAMINE, 55-18-5, N-METHYL-N-NITROSOUREA, 684-93-5, N-BUTYL-N-(4-HYDROXYBUTYL)NITROSAMINE, 3817-11-6, DIMETHY, Dose [Inhibitor]: 0, 1% IN THE DIET FOR 24 WK BEGINNING 1 D POST CARCINOGEN TREATMENT (STUDY DURATION: 28 WK), Strain/Sex: F344/MALE, Target Tissue: Type of Lesion: URINARY BLADDER: PAPILLOMA, Dose [Carcinogen]: 100 MG/KG BW DEN ONCE FOLLOWED BY 20 MG/KG BW MNU 4 TIMES AND 0.05% BBN IN DRINKING WATER DURING FIRST 2 WK THEN 40 MG/K, Promoter: NONE USED
  tumour outcome (control, treated, inhibition, significance): 7%, 0%, 100%, not significant
Carcinogen: DIETHYLNITROSAMINE, 55-18-5, N-METHYL-N-NITROSOUREA, 684-93-5, N-BUTYL-N-(4-HYDROXYBUTYL)NITROSAMINE, 3817-11-6, DIMETHY, Carcinogen: DIETHYLNITROSAMINE, 55-18-5, N-METHYL-N-NITROSOUREA, 684-93-5, N-BUTYL-N-(4-HYDROXYBUTYL)NITROSAMINE, 3817-11-6, DIMETHY, Dose [Inhibitor]: 0, 1% IN THE DIET FOR 24 WK BEGINNING 1 DAY POST CARCINOGEN TREATMENT (STUDY DURATION: 28 WK), Strain/Sex: F344/MALE, Target Tissue: Type of Lesion: LARGE INTESTINE: ADENOMA, Dose [Carcinogen]: 100 MG/KG BW DEN ONCE FOLLOWED BY 20 MG/KG BW MNU 4 TIMES AND 0.05% BBN IN DRINKING WATER DURING FIRST 2 WK THEN 40 MG/K, Promoter: NONE USED
  tumour outcome (control, treated, inhibition, significance): 27%, 0%, 100%, p<0.05
